Assay results as given in patent US7544835B2, “Carboxylic acid derivative and salt thereof” (Eisai R&D Management Co., Ltd., priority 2001, dated 2009).
Where two headings read alike, the source gives them in different places.

Tested on: male db/db mice
Test: Blood glucose, triglyceride and non-esterified fatty acid reduction in db/db mice
Assay type: in vivo
Conditions: Mus musculus, 216 h, oral once a day, day 9 after administration
Experimental: A chemical suspended in 0.5% methyl cellulose was orally administered via a sonde into male db/db mice (Nippon Charles River, Yokohama, JP) once a day (0.3 to 30 mg/kg/day). Before treatment and after 4 and 9 days treatment, blood was collected through a tail vein after the mice were fasted for 1 hour, respectively. On Day 10, an oral glucose loading test was conducted; in this test, the mice were fasted overnight from the previous day, and in the next morning, 2 g/kg glucose was given to the mice. Plasma glucose, triglycerides (TG), non-esterified fatty acid (NEFA) were measured by using commercial kits, that is, Glucose C-II Test Wako (trade name) (Wako Pure Chemical Industries, Ltd., Tokyo), Determiner L TG II (trade name) (Kyowa Medex, Tokyo) and NEFA C-Test Wako (Wako Pure Chemical Industries, Ltd., Tokyo), respectively.
The determined blood glucose reduction, blood triglyceride reduction and blood non-esterified fatty acid reduction at day 9 after administration are shown in Table 1.

[1] = read-out: Blood free fatty acid reduction (%)
[2] = read-out: Blood sugar reduction (%)
[3] = read-out: Blood triglyceride reduction (%)

`CC(C)OC(Cc1cccc(OCC#Cc2ccc(Cl)cc2Cl)c1)C(=O)O` (stereo not drawn) [Ex 100, 2-Isopropoxy-3-(3-[3-(2,4-dichlorophenyl)-2-propynyl]oxyphenyl)propanoic acid] showed an inhibition in vivo at 6 mg/kg [1] of 60.7%, an inhibition in vivo at 6 mg/kg [2] of 65.1% and an inhibition in vivo at 6 mg/kg [3] of 79.3%.
`CC(C)O[C@@H](Cc1cccc(OC[C@H](F)COc2ccc(Cl)cc2C#N)c1)C(=O)O` [Example 329, 3-{3-[3-(4-Chloro-2-cyanophenoxy)-2(S)-fluoropropoxy]phenyl}-2(S)-isopropoxypropanoic acid] gave an inhibition in vivo at 3 mg/kg [1] of 47.5%, an inhibition in vivo at 3 mg/kg [2] of 37.7% and an inhibition in vivo at 3 mg/kg [3] of 36.8%.
`CC(C)O[C@@H](Cc1cccc(OC[C@@H](F)COc2ccc(Cl)cc2Cl)c1)C(=O)O` [Example 320, 3-{3-[3-(2,4-Dichlorophenoxy)-2 (R)-fluoropropoxy]phenyl}-2(S)-isopropoxypropanoic acid] gave an inhibition in vivo at 3 mg/kg [1] of 35.4%, an inhibition in vivo at 3 mg/kg [2] of 56.3% and an inhibition in vivo at 3 mg/kg [3] of 80.3%.
`C/C(=N\OCc1ccc(C(F)(F)F)cc1)c1cccc(CC(OC(C)C)C(=O)O)c1` (stereo not drawn) [Ex 132, 2-Isopropoxy-3-[3-([4-(trifluoromethyl)benzyl]-oxyethaneimidoyl)phenyl]propanoic acid] showed an inhibition in vivo at 6 mg/kg [1] of 72.5%, an inhibition in vivo at 6 mg/kg [2] of 50.4% and an inhibition in vivo at 6 mg/kg [3] of 75.5%.
In the case of `CC(C)O[C@@H](Cc1cccc(CNC(=O)OCc2ccc(OC(F)(F)F)cc2)c1)C(=O)O` [Ex 335, 2 (S)-Isopropoxy-3-{3-[(4-trifluoromethoxybenzyloxycarbonylamino)methyl]phenyl}-propanoic acid], the inhibition in vivo at 3 mg/kg [1] is reported as 40%, the inhibition in vivo at 3 mg/kg [2] is reported as 57.2% and the inhibition in vivo at 3 mg/kg [3] is reported as 81.4%.
For `CC(C)OC(Cc1cccc(C#C[C@]2(O)CC[C@@H](C(C)(C)C)CC2)c1)C(=O)O` (stereo partly drawn) [Ex 113, trans-3-(3-2-[4-t-Butyl-1-hydroxycyclohexyl]-1-ethynylphenyl)-2-isopropoxypropanoic acid], the inhibition in vivo at 6 mg/kg [1] was 39.5%, the inhibition in vivo at 6 mg/kg [2] was 70% and the inhibition in vivo at 6 mg/kg [3] was 81.8%.
Compound `CC(C)O[C@@H](Cc1cccc(CNC(=O)OCc2cccc(OC(F)(F)F)c2)c1)C(=O)O` [Ex 344, 3-(3-{[3-Trifluoromethoxybenzyloxycarbonylamino]methyl}phenyl)-2(S)-isopropoxypropanoic acid] has an inhibition in vivo at 3 mg/kg [1] of 58.1%, an inhibition in vivo at 3 mg/kg [2] of 45.8% and an inhibition in vivo at 3 mg/kg [3] of 61.8%.
`CC(C)O[C@@H](Cc1cccc(OC[C@H](O)COc2ccc(Cl)cc2)c1)C(=O)O` [Example 282, 3-(3-{2(R)-Hydroxy-3-[4-chlorophenoxy]propoxy}phenyl)-2(S)-isopropoxypropanoic acid] showed an inhibition in vivo at 3 mg/kg [1] of 18.4%, an inhibition in vivo at 3 mg/kg [2] of 17.9% and an inhibition in vivo at 3 mg/kg [3] of 59.7%.
